According to ChEMBL document CHEMBL1201861, “Genomics of Drug Sensitity in Cancer screening data, Wellcome Trust Sanger Institute”:
pIC50: −log10 of the molar value.

Columns and labels:
Assay in all cases: cells
Type in all cases: functional, cell-based, Homo sapiens
DJM-1 = settings: Homo sapiens, DJM-1;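 also: growth inhibition of human DJM-1 cells, read out by a cell viability assay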
Description: SANGER: Inhibition of human DJM-1 cell growth in a cell viability assay.

DMS-79 = settings: Homo sapiens, DMS-79;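 also: growth inhibition measured with a cell viability assay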
Description: SANGER: Inhibition of human DMS-79 cell growth in a cell viability assay.

DU-4475 = settings: Homo sapiens, DU-4475
Description: SANGER: Inhibition of human DU-4475 cell growth in a cell viability assay.

EW-1 = settings: Homo sapiens, EW-1
Description: SANGER: Inhibition of human EW-1 cell growth in a cell viability assay.

EW-18 = settings: Homo sapiens, EW-18;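 also: growth inhibition of EW-18 cells, read out by a cell viability assay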
Description: SANGER: Inhibition of human EW-18 cell growth in a cell viability assay.

GAK = settings: Homo sapiens, GAK;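 also: cell growth inhibition read out by a cell viability assay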
Description: SANGER: Inhibition of human GAK cell growth in a cell viability assay.

GB-1 = settings: Homo sapiens, GB-1;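 also: growth of GB-1 cells judged by a viability assay, IC50 marks the concentration inhibiting growth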
Description: SANGER: Inhibition of human GB-1 cell growth in a cell viability assay.

HCC 2998 = settings: Homo sapiens, HCC 2998;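 also: growth inhibition of human HCC2998 cells, measured with a cell viability read-out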
Description: SANGER: Inhibition of human HCC2998 cell growth in a cell viability assay.

HDLM-2 = settings: Homo sapiens, HDLM-2;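 also: cell viability assay measuring suppression of HDLM-2 proliferation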
Description: SANGER: Inhibition of human HDLM-2 cell growth in a cell viability assay.

IST-MEL1 = settings: Homo sapiens, IST-MEL1;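 also: growth inhibition of the cell line, read out with a cell viability assay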
Description: SANGER: Inhibition of human IST-MEL1 cell growth in a cell viability assay.

K562 = settings: Homo sapiens, K562
Description: SANGER: Inhibition of human K-562 cell growth in a cell viability assay.

KALS-1 = settings: Homo sapiens, KALS-1;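 also: growth inhibition of KALS-1 cells, determined with a cell viability assay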
Description: SANGER: Inhibition of human KALS-1 cell growth in a cell viability assay.

KINGS-1 = settings: Homo sapiens, KINGS-1;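 also: cell viability assay measuring suppression of KINGS-1 cell growth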
Description: SANGER: Inhibition of human KINGS-1 cell growth in a cell viability assay.

L-363 = settings: Homo sapiens, L-363
Description: SANGER: Inhibition of human L-363 cell growth in a cell viability assay.

LOX IMVI = settings: Homo sapiens, LOX IMVI
Description: SANGER: Inhibition of human LOXIMVI cell growth in a cell viability assay.

LS-123 = settings: Homo sapiens, LS-123
Description: SANGER: Inhibition of human LS-123 cell growth in a cell viability assay.

MOLT-4 = settings: Homo sapiens, MOLT-4;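 also: growth inhibition of MOLT-4 cells, determined with a cell viability readout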
Description: SANGER: Inhibition of human MOLT-4 cell growth in a cell viability assay.

MS-1 = settings: Homo sapiens, MS-1;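 also: growth inhibition of MS-1 cells, read out by cell viability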
Description: SANGER: Inhibition of human MS-1 cell growth in a cell viability assay.

Mo = settings: Homo sapiens, Mo
Description: SANGER: Inhibition of human Mo-T cell growth in a cell viability assay.

NB10 = settings: Homo sapiens, NB10;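 also: growth inhibition of NB10 cells, read out by a cell viability assay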
Description: SANGER: Inhibition of human NB10 cell growth in a cell viability assay.

NCI-H1299 = settings: Homo sapiens, NCI-H1299;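 also: growth inhibition of human NCI-H1299 cells, read out by a cell viability assay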
Description: SANGER: Inhibition of human NCI-H1299 cell growth in a cell viability assay.

NCI-H1304 = settings: Homo sapiens, NCI-H1304;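 also: growth inhibition of the cancer cell line, measured in a cell viability assay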
Description: SANGER: Inhibition of human NCI-H1304 cell growth in a cell viability assay.

NCI-H1581 = settings: Homo sapiens, NCI-H1581;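 also: cell growth inhibition read out by a viability assay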
Description: SANGER: Inhibition of human NCI-H1581 cell growth in a cell viability assay.

NCI-H1770 = settings: Homo sapiens, NCI-H1770;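 also: growth inhibition of NCI-H1770 cells determined with a viability readout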
Description: SANGER: Inhibition of human NCI-H1770 cell growth in a cell viability assay.

NCI-H526 = settings: Homo sapiens, NCI-H526;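 also: growth inhibition of the human NCI-H526 cell line, measured by a cell viability assay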
Description: SANGER: Inhibition of human NCI-H526 cell growth in a cell viability assay.

OCI-AML2 = settings: Homo sapiens, OCI-AML2;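 also: growth inhibition of OCI-AML2 cells, read out with a cell viability assay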
Description: SANGER: Inhibition of human OCI-AML2 cell growth in a cell viability assay.

OCUB-M = settings: Homo sapiens, OCUB-M;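 also: growth inhibition of the cancer cell line, read out through a cell viability assay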
Description: SANGER: Inhibition of human OCUB-M cell growth in a cell viability assay.

OVCAR-4 = settings: Homo sapiens, OVCAR-4;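 also: growth inhibition of human OVCAR-4 cells, measured with a cell viability assay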
Description: SANGER: Inhibition of human OVCAR-4 cell growth in a cell viability assay.

PSN1 = settings: Homo sapiens, PSN1;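 also: suppression of growth of human PSN1 cells, read out by a cell viability assay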
Description: SANGER: Inhibition of human PSN1 cell growth in a cell viability assay.

RH-1 = settings: Homo sapiens, RH-1;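 also: growth inhibition of human RH-1 cells, read out with a cell viability assay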
Description: SANGER: Inhibition of human RH-1 cell growth in a cell viability assay.

RPMI-8226 = settings: Homo sapiens, RPMI-8226
Description: SANGER: Inhibition of human RPMI-8226 cell growth in a cell viability assay.

RPMI-8866 = settings: Homo sapiens, RPMI-8866
Description: SANGER: Inhibition of human RPMI-8866 cell growth in a cell viability assay.

RXF 393 = settings: Homo sapiens, RXF 393;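 also: growth inhibition of human RXF 393 cells, read out with a cell viability assay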
Description: SANGER: Inhibition of human RXF393 cell growth in a cell viability assay.

Ramos-2G6-4C10 = settings: Homo sapiens, Ramos-2G6-4C10;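 also: growth inhibition of the cell line, measured by a cell viability read-out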
Description: SANGER: Inhibition of human Ramos-2G6-4C10 cell growth in a cell viability assay.

SCC-15 = settings: Homo sapiens, SCC-15;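 also: growth inhibition of SCC-15 cells, read out with a cell viability assay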
Description: SANGER: Inhibition of human SCC-15 cell growth in a cell viability assay.

SCH = settings: Homo sapiens, SCH;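 also: growth inhibition of human SCH cells, read out in a cell viability assay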
Description: SANGER: Inhibition of human SCH cell growth in a cell viability assay.

SF-268 = settings: Homo sapiens, SF-268;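 also: growth inhibition of SF-268 cells determined with a cell viability assay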
Description: SANGER: Inhibition of human SF268 cell growth in a cell viability assay.

SK-MEL-2 = settings: Homo sapiens, SK-MEL-2;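 also: growth inhibition of human SK-MEL-2 cells measured with a cell viability assay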
Description: SANGER: Inhibition of human SK-MEL-2 cell growth in a cell viability assay.

SW 954 = settings: Homo sapiens, SW 954;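 also: growth inhibition of SW954 human cancer cells, read out as cell viability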
Description: SANGER: Inhibition of human SW954 cell growth in a cell viability assay.

SW982 = settings: Homo sapiens, SW982;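 also: growth inhibition of SW982 cells, read out with a cell viability assay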
Description: SANGER: Inhibition of human SW982 cell growth in a cell viability assay.

BV-173 = settings: Homo sapiens, BV-173
Description: SANGER: Inhibition of human BV-173 cell growth in a cell viability assay.

TE-6 = settings: Homo sapiens, TE-6;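 also: growth inhibition of TE-6 cells, read out with a cell viability assay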
Description: SANGER: Inhibition of human TE-6 cell growth in a cell viability assay.

TGBC24TKB = settings: Homo sapiens, TGBC24TKB;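 also: growth inhibition of human TGBC24TKB cells, read out with a cell viability assay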
Description: SANGER: Inhibition of human TGBC24TKB cell growth in a cell viability assay.

U-266 = settings: Homo sapiens, U-266
Description: SANGER: Inhibition of human U-266 cell growth in a cell viability assay.

UACC-257 = settings: Homo sapiens, UACC-257
Description: SANGER: Inhibition of human UACC-257 cell growth in a cell viability assay.

no-11 = settings: Homo sapiens;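 also: growth inhibition of human NO-11 cells, read out with a cell viability assay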
Description: SANGER: Inhibition of human no-11 cell growth in a cell viability assay.

CGTH-W-1 = settings: Homo sapiens, CGTH-W-1;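 also: growth inhibition of human CGTH-W-1 cells measured by cell viability assay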
Description: SANGER: Inhibition of human CGTH-W-1 cell growth in a cell viability assay.

Compound: Cc1cc([N+](=O)[O-])ccc1NS(=O)(=O)c1cc(Cl)ccc1Cl
- pIC50 (DJM-1): 4.98
- pIC50 (DMS-79): < 4.49
- pIC50 (DU-4475): 5.11
- pIC50 (EW-1): 4.81
- pIC50 (EW-18): 5.02
- pIC50 (GAK): 5.70
- pIC50 (GB-1): 5.66
- pIC50 (HCC 2998): 5.50
- pIC50 (HDLM-2): 5.17
- pIC50 (IST-MEL1): 4.95
- pIC50 (K562): 4.57
- pIC50 (KALS-1): 5.07
- pIC50 (KINGS-1): < 4.49
- pIC50 (L-363): 5.07
- pIC50 (LOX IMVI): 4.86
- pIC50 (LS-123): 5.04
- pIC50 (MOLT-4): < 4.49
- pIC50 (MS-1): 4.79
- pIC50 (Mo): < 4.49
- pIC50 (NB10): 4.79
- pIC50 (NCI-H1299): 5.50
- pIC50 (NCI-H1304): < 4.49
- pIC50 (NCI-H1581): 5.03
- pIC50 (NCI-H1770): 4.77
- pIC50 (NCI-H526): 4.55
- pIC50 (OCI-AML2): 5.60
- pIC50 (OCUB-M): 6.09
- pIC50 (OVCAR-4): 5.34
- pIC50 (PSN1): 5.49
- pIC50 (RH-1): 4.99
- pIC50 (RPMI-8226): 5.18
- pIC50 (RPMI-8866): 5.48
- pIC50 (RXF 393): < 4.49
- pIC50 (Ramos-2G6-4C10): 5.22
- pIC50 (SCC-15): 5.40
- pIC50 (SCH): 4.69
- pIC50 (SF-268): 5.22
- pIC50 (SK-MEL-2): 5.77
- pIC50 (SW 954): 5.14
- pIC50 (SW982): 5.04
- pIC50 (BV-173): < 4.49
- pIC50 (TE-6): 4.72
- pIC50 (TGBC24TKB): 5.28
- pIC50 (U-266): 4.64
- pIC50 (UACC-257): 5.42
- pIC50 (no-11): 5.17
- pIC50 (CGTH-W-1): 4.93

Compound: Oc1ccc2ccccc2c1SSc1c(O)ccc2ccccc12
- pIC50 (DJM-1): < 4.49
- pIC50 (DMS-79): < 4.49
- pIC50 (DU-4475): < 4.49
- pIC50 (EW-1): 4.85
- pIC50 (EW-18): < 4.49
- pIC50 (GAK): < 4.49
- pIC50 (GB-1): 5.58
- pIC50 (HCC 2998): < 4.49
- pIC50 (HDLM-2): < 4.49
- pIC50 (IST-MEL1): < 4.49
- pIC50 (K562): < 4.49
- pIC50 (KALS-1): < 4.49
- pIC50 (KINGS-1): < 4.49
- pIC50 (L-363): < 4.49
- pIC50 (LOX IMVI): < 4.49
- pIC50 (LS-123): 5.06
- pIC50 (MOLT-4): 4.85
- pIC50 (MS-1): < 4.49
- pIC50 (Mo): < 4.49
- pIC50 (NB10): < 4.49
- pIC50 (NCI-H1299): < 4.49
- pIC50 (NCI-H1304): < 4.49
- pIC50 (NCI-H1581): < 4.49
- pIC50 (NCI-H1770): < 4.49
- pIC50 (NCI-H526): < 4.49
- pIC50 (OCI-AML2): 5.09
- pIC50 (OCUB-M): < 4.49
- pIC50 (OVCAR-4): < 4.49
- pIC50 (PSN1): < 4.49
- pIC50 (RH-1): 4.56
- pIC50 (RPMI-8226): < 4.49
- pIC50 (RPMI-8866): < 4.49
- pIC50 (RXF 393): < 4.49
- pIC50 (Ramos-2G6-4C10): < 4.49
- pIC50 (SCC-15): < 4.49
- pIC50 (SCH): < 4.49
- pIC50 (SF-268): < 4.49
- pIC50 (SK-MEL-2): < 4.49
- pIC50 (SW 954): < 4.49
- pIC50 (SW982): < 4.49
- pIC50 (BV-173): < 4.49
- pIC50 (TE-6): < 4.49
- pIC50 (TGBC24TKB): < 4.49
- pIC50 (U-266): < 4.49
- pIC50 (UACC-257): < 4.49
- pIC50 (no-11): < 4.49
- pIC50 (CGTH-W-1): < 4.49

Compound: C=C(c1ccc(C(=O)O)cc1)c1cc2c(cc1C)C(C)(C)CCC2(C)C [BEXAROTENE]
- pIC50 (DJM-1): < 5.10
- pIC50 (DMS-79): < 5.10
- pIC50 (DU-4475): < 5.10
- pIC50 (EW-1): < 5.10
- pIC50 (EW-18): < 5.10
- pIC50 (GAK): < 5.10
- pIC50 (GB-1): < 5.10
- pIC50 (HCC 2998): < 5.10
- pIC50 (HDLM-2): < 5.10
- pIC50 (IST-MEL1): < 5.10
- pIC50 (K562): < 5.10
- pIC50 (KALS-1): < 5.10
- pIC50 (KINGS-1): < 5.10
- pIC50 (L-363): < 5.10
- pIC50 (LOX IMVI): < 5.10
- pIC50 (LS-123): < 5.10
- pIC50 (MOLT-4): < 5.10
- pIC50 (MS-1): < 5.10
- pIC50 (Mo): < 5.10
- pIC50 (NB10): < 5.10
- pIC50 (NCI-H1299): < 5.10
- pIC50 (NCI-H1304): < 5.10
- pIC50 (NCI-H1581): < 5.10
- pIC50 (NCI-H1770): < 5.10
- pIC50 (NCI-H526): < 5.10
- pIC50 (OCI-AML2): < 5.10
- pIC50 (OCUB-M): 5.99
- pIC50 (OVCAR-4): < 5.10
- pIC50 (PSN1): 5.40
- pIC50 (RH-1): < 5.10
- pIC50 (RPMI-8226): < 5.10
- pIC50 (RPMI-8866): < 5.10
- pIC50 (RXF 393): < 5.10
- pIC50 (Ramos-2G6-4C10): < 5.10
- pIC50 (SCC-15): < 5.10
- pIC50 (SCH): < 5.10
- pIC50 (SF-268): < 5.10
- pIC50 (SK-MEL-2): < 5.10
- pIC50 (SW 954): < 5.10
- pIC50 (SW982): < 5.10
- pIC50 (BV-173): < 5.10
- pIC50 (TE-6): < 5.10
- pIC50 (TGBC24TKB): < 5.10
- pIC50 (U-266): < 5.10
- pIC50 (UACC-257): < 5.10
- pIC50 (no-11): < 5.10
- pIC50 (CGTH-W-1): < 5.10
